Test results reported in US11896573B2, “Pharmaceutical compositions and pharmacokinetics of a gamma-hydroxybutyric acid derivative” (priority 2020, dated 2024).
Several values for one entry are separate records, joined by “and”; a condition that tells them apart may be missing. Identical values can stand only once. Like-named read-outs stand apart in the source and are kept apart here.

Assays:
[1] = Food effect and relative bioavailability crossover study, Compound (1) vs sodium oxybate; conditions: 7.25 g Compound (1) oral; for AUC(0-inf) / AUC(0-t) / Cmax / half-life / Tmax: human, plasma, po, 7.25 g; for AUC(0-inf): Compound (1) plasma AUC0-inf; for Tmax: Compound (1) plasma Tmax
For Purity (Area %) in this document: time not given here.

## CC(C)[C@H](N)C(=O)OCCCC(=O)O [Compound (1), 4-((L-valyl)oxy)butanoic acid]
pH 1.2
  Purity (Area %): 99.25 Area % and 99.22 Area % and 98.95 Area %
pH 4.5
  Purity (Area %): 99.25 Area % and 99.05 Area % and 98.35 Area %
pH 6.8
  Purity (Area %): 99.08 Area % and 97.58 Area % and 93.14 Area %
pH 7.4
  Purity (Area %): 98.84 Area % and 95.74 Area % and 87.89 Area %
[1]
  plasma Compound (1) AUC0-tlast, Adjusted Geometric Mean Ratio (Fed vs Fasted): 1.28
  plasma Compound (1) Cmax, Adjusted Geometric Mean Ratio (Fed vs Fasted): 0.65
[1]; Fasted
  Compound (1) plasma AUC0-inf, Max: 30800 ng·h/mL
  Compound (1) plasma AUC0-inf, Min: 9500 ng·h/mL
  Compound (1) plasma AUC0-tlast, Max: 36100 ng·h/mL
  Compound (1) plasma AUC0-tlast, Min: 9400 ng·h/mL
  Compound (1) plasma Cmax, Max: 43600 ng/mL
  Compound (1) plasma Cmax, Min: 9400 ng/mL
  Compound (1) plasma T1/2, Max: 114 min
  Compound (1) plasma T1/2, Min: 16.2 min
[1]; Fed
  Compound (1) plasma AUC0-inf, Max: 39000 ng·h/mL
  Compound (1) plasma AUC0-inf, Min: 16000 ng·h/mL
  Compound (1) plasma AUC0-tlast, Max: 38600 ng·h/mL
  Compound (1) plasma AUC0-tlast, Min: 15900 ng·h/mL
  Compound (1) plasma Cmax, Max: 27800 ng/mL
  Compound (1) plasma Cmax, Min: 5500 ng/mL
  Compound (1) plasma T1/2, Max: 69 min
  Compound (1) plasma T1/2, Min: 16.2 min
  Compound (1) plasma Tmax, Max: 90 min
[1]; Mean, Fasted
  AUC(0-inf): 22400 ng·h/mL
[1]; Mean, Fed
  AUC(0-inf): 29000 ng·h/mL
[1]; Median, Fasted
  AUC(0-inf): 20400 ng·h/mL
  Tmax: 45 min
[1]; Median, Fed
  AUC(0-inf): 29100 ng·h/mL
  Tmax: 30 min
[1]; Compound (1) plasma AUC0-tlast, Mean, Fasted
  AUC(0-t): 23900 ng·h/mL
[1]; Compound (1) plasma AUC0-tlast, Mean, Fed
  AUC(0-t): 28800 ng·h/mL
[1]; Compound (1) plasma AUC0-tlast, Median, Fasted
  AUC(0-t): 22500 ng·h/mL
[1]; Compound (1) plasma AUC0-tlast, Median, Fed
  AUC(0-t): 29000 ng·h/mL
[1]; Compound (1) plasma Cmax, Mean, Fasted
  Cmax: 27700 ng/mL
[1]; Compound (1) plasma Cmax, Mean, Fed
  Cmax: 18100 ng/mL
[1]; Compound (1) plasma Cmax, Median, Fasted
  Cmax: 27300 ng/mL
[1]; Compound (1) plasma Cmax, Median, Fed
  Cmax: 17300 ng/mL
[1]; Compound (1) plasma T1/2, Mean, Fasted
  half-life: 32.4 min
[1]; Compound (1) plasma T1/2, Mean, Fed
  half-life: 38.4 min
[1]; Compound (1) plasma T1/2, Median, Fasted
  half-life: 21 min
[1]; Compound (1) plasma T1/2, Median, Fed
  half-life: 35.4 min
[1]; plasma Compound (1) AUC0-tlast, Adjusted Geometric Mean, Fasted
  AUC(0-t): 21000 ng·h/mL
[1]; plasma Compound (1) AUC0-tlast, Adjusted Geometric Mean, Fed
  AUC(0-t): 27000 ng·h/mL
[1]; plasma Compound (1) Cmax, Adjusted Geometric Mean, Fasted
  Cmax: 25400 ng/mL
[1]; plasma Compound (1) Cmax, Adjusted Geometric Mean, Fed
  Cmax: 16500 ng/mL
